Starred links: 1 amine or outer side, 2 acyl side, 3 side chain; linkers in the order of their positions; H or OH if unused. Non-standard residues stand in square brackets, D forms with d. Residues, ends and D or L forms follow the SMILES beside them. *: point of attachment. X1 = O=C([C@@H]1CCNc2c(N[*:1])cc3cc(O)c(O)cc3[n+]21)[*:2]; dOrn(N5-OH,N5-CHO) = N[C@H](CCCN(O)C=O)C(=O)O; d(aThr) = C[C@@H](O)[C@@H](N)C(=O)O; Suc = O=C(CCC(=O)[*:2])[*:1]; X2 = O=C1[C@@H](N*)CCCN1[O-]; Orn = NCCC[C@H](N)C(=O)O
Columns and labels:
[1] = target: T1, hNGAL (human lipocalin 2, parent wild type SEQ ID NO: 1) mutein SEQ ID NO: 39 (Homo sapiens, UniProt P80188, A60R/C107S/D97A/I61W/K145T/K154E/K93L/L123P/L56F/L90N/N116R/Q48H/Q69I/R101S/R92W/S147I/S88Q/W99S/Y120I/Y126E/Y152F); conditions: solution binding ELISA
T1 construct: made in house; host or cells: E. coli
Description: (§1) The concentration of free (non ligand-bound) muteins was determined via a quantitative ELISA setup.
(§2) In detail, a 384-well plate suitable for fluorescence measurements (Greiner FLUOTRAC™ 600, black flat bottom, high-binding) was coated with 20 μl of Neutravidin at a concentration of 5 μg/ml in PBS overnight at 4 C. After washing, the Neutravidin-coated wells were blocked with 100 μl blocking buffer containing 0.1% Tween 20 and 2% BSA (PBS-T/BSA) for 1 h at room temperature.
(§3) The residual supernatants were discarded and 20 μl HRP-labeled anti-hNGAL antibody was added at a predetermined optimal concentration in PBS-T/BSA and incubated for 1 h at RT. […] After washing, 20 μl fluorogenic HRP substrate (QuantaBlu, Thermo) was added to each well, and the reaction was allowed to proceed for 15 to 60 minutes. The fluorescence intensity of every well on the plate was read using a fluorescence microplate reader (Tecan or Molecular Devices). […] Curve fitting was performed using GraphPad Prism 4 software.

[2] = target: T2, hNGAL (human lipocalin 2, parent wild type SEQ ID NO: 1) mutein SEQ ID NO: 53 (Homo sapiens, UniProt P80188, A60L/C107S/D97K/I61A/K154W/K93H/L123Q/L56E/L62R/L90R/N116L/N85D/Q69M/R101V/S125P/S147V/S88E/W99D/Y120D/Y126E/Y72M); assay: Solution binding ELISA; conditions: Example 5
T2 construct: made in house; host or cells: E. coli
Description: as §1, §2, §3
The concentration of free (non ligand-bound) mutein or fusion molecule construct was determined via a quantitative ELISA setup.
In detail, a 384-well plate suitable for fluorescence measurements (Greiner FLUOTRAC™ 600, black flat bottom, high-binding) was coated with 20 μl of Neutravidin at a concentration of 5 μg/ml in PBS overnight at 4° C. After washing, the Neutravidin-coated wells were blocked with 100 μl blocking buffer containing 0.1% Tween 20 and 2% BSA (PBS-T/BSA) for 1 h at room temperature.
The residual supernatants were discarded and 20 μl HRP-labeled anti-hNGAL antibody was added at a predetermined optimal concentration in PBS-T/BSA and incubated for 1 h at RT. […] After washing, 20 μl fluorogenic HRP substrate (QuantaBlu, Thermo) was added to each well, and the reaction was allowed to proceed for 15 to 60 minutes. The fluorescence intensity of every well on the plate was read using a fluorescence microplate reader (Tecan or Molecular Devices). […] IC50 values were fitted by nonlinear regression with a single-sites binding model. Curve fitting was performed using GraphPad Prism 4 software.

[3] = target: T3, hNGAL (human lipocalin 2, parent wild type SEQ ID NO: 1) mutein SEQ ID NO: 48 (Homo sapiens, UniProt P80188, A60L/C107S/D67N/D97K/I61A/K154W/K93H/L123Q/L56E/L90R/N116L/Q48H/Q69M/R101V/S125P/S147V/S88E/T165P/W99D/Y120D/Y126E/Y72M); assay: Solution binding ELISA
T3 construct: made in house; host or cells: E. coli
Description: as §1, §2, §3

[4] = target: T4, Fusion molecule SEQ ID NO: 134 (hNGAL muteins SEQ ID NOs: 36, 16, 53 and 62) (Homo sapiens, UniProt P80188, A60T/C107S/D97H, form not given/K145I/K154W/K93R/L123T/L56V/L90R/N85D/Q69G/R101D/R92I/S147R/S88D/T74A/W99Y/Y126Q/Y152I/Y72N); assay: Surface plasmon resonance (Biacore T200); type: binding; conditions: for binding: SPR
T4 construct: made in house; host or cells: HEK293
T4 sequence (P80188 with tags, fused parts or gaps with the stated changes, form open): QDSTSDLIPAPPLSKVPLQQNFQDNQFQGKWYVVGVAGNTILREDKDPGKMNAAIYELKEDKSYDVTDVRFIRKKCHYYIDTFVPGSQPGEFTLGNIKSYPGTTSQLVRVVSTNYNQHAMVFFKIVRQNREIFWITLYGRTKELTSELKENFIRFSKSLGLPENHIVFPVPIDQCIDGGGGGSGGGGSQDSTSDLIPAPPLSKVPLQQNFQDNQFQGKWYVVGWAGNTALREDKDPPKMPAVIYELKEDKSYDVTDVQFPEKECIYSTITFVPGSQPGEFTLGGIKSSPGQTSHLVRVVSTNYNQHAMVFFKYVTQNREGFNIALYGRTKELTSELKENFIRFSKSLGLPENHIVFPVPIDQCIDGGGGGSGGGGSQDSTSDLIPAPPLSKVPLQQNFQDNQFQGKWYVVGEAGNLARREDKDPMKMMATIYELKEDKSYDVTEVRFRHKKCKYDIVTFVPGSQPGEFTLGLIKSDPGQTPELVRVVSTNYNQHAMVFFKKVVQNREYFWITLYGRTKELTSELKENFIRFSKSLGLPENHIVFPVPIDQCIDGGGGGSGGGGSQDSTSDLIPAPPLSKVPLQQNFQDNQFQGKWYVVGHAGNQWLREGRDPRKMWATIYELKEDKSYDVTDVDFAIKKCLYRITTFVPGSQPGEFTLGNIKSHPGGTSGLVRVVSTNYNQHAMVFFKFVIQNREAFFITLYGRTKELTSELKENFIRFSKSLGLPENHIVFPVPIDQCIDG

[5] = target: T5, Fusion molecule SEQ ID NO: 134 (hNGAL muteins SEQ ID NOs: 36, 16, 53 and 62) (Homo sapiens, UniProt P80188, A60T/C107S/D97H, form not given/K145I/K154W/K93R/L123T/L56V/L90R/N85D/Q69G/R101D/R92I/S147R/S88D/T74A/W99Y/Y126Q/Y152I/Y72N); assay: Solution binding ELISA; conditions: binding to target in solution, tracer 0.1 nM, Table 11
T5 construct: made in house
T5 sequence (P80188 with tags, fused parts or gaps with the stated changes, form open): as above

[6] = target: T6, hNGAL (human lipocalin 2, parent wild type SEQ ID NO: 1) mutein SEQ ID NO: 45 (Homo sapiens, UniProt P80188, A60L/C107S/D97K/I61A/K154W/K93H/L123Q/L56E/L90R/N116L/Q48H/Q69M/R101V/S147V/S88E/W99D/Y120D/Y126E/Y72M); assay: Solution binding ELISA
T6 construct: made in house; host or cells: E. coli
Description: as §1, §2, §3

[7] = target: T7, hNGAL (human lipocalin 2, parent wild type SEQ ID NO: 1) mutein SEQ ID NO: 46 (deletion of G-N-I-K, positions 95-98) (Homo sapiens, UniProt P80188, A60L/C107S/D97Q/DEL115-118/I61A/K154W/K93Y/L123Q/L56E/L90R/Q48H/Q69K/R101V/S147V/S88E/W99D/Y120E/Y126E/Y152F/Y72M); assay: Solution binding ELISA
T7 construct: made in house; host or cells: E. coli
Description: as §1, §2, §3

[8] = target: T8, hNGAL (human lipocalin 2, parent wild type SEQ ID NO: 1) mutein SEQ ID NO: 43 (Homo sapiens, UniProt P80188, A60L/C107S/D97K/I61A/K154W/K93Q/L123Q/L56E/L90R/N116L/Q48H/Q69M/R101V/S147V/S88E/W99D/Y120D/Y126E/Y72M); assay: Solution binding ELISA
T8 construct: made in house; host or cells: E. coli
Description: as §1, §2, §3

[9] = target: T9, hNGAL (human lipocalin 2, parent wild type SEQ ID NO: 1) mutein SEQ ID NO: 50 (Homo sapiens, UniProt P80188, A60L/C107S/D97K/I61A/K154W/K93H/L123Q/L56E/L62R/L90R/N116L/N85D/Q48H/Q69M/R101V/S125P/S147V/S88E/W99D/Y120D/Y126E/Y72M); assay: Solution binding ELISA; conditions: Example 5
T9 construct: made in house; host or cells: E. coli
Description: as §1, §2, §3

[10] = target: T10, hNGAL (human lipocalin 2, parent wild type SEQ ID NO: 1) mutein SEQ ID NO: 42 (Homo sapiens, UniProt P80188, A60L/C107S/D97Q/I61A/K154W/K93H/L123Q/L56E/L90R/N116L/Q48H/Q69K/R101A/S147V/S88E/W99D/Y120D/Y126E/Y152F/Y72M); assay: Solution binding ELISA
T10 construct: made in house; host or cells: E. coli
Description: as §1, §2, §3

[11] = target: T11, hNGAL (human lipocalin 2, parent wild type SEQ ID NO: 1) mutein SEQ ID NO: 44 (Homo sapiens, UniProt P80188, A60L/C107S/D97K/I61T/K154W/K93R/L123Q/L56E/L90R/N116V/Q48H/Q69M/R101V/S147V/S88E/W99D/Y120D/Y126E/Y72M); assay: Solution binding ELISA
T11 construct: made in house; host or cells: E. coli
Description: as §1, §2, §3

[12] = target: T12, hNGAL (human lipocalin 2, parent wild type SEQ ID NO: 1) mutein SEQ ID NO: 47 (Homo sapiens, UniProt P80188, A60L/C107S/D97K/I61A/K154W/K93H/L123Q/L56E/L62R/L90R/N116L/Q48H/Q69M/R101V/S125P/S147V/S88E/W99D/Y120D/Y126E/Y72M); assay: Solution binding ELISA
T12 construct: made in house; host or cells: E. coli
Description: as §1, §2, §3

[13] = target: T2, hNGAL (human lipocalin 2, parent wild type SEQ ID NO: 1) mutein SEQ ID NO: 53; assay: Surface plasmon resonance (Biacore T200); type: binding; conditions: SPR, 25° C., Table 2C
Description: (§4) In a Surface Plasmon Resonance (SPR) based assay a Biacore T200 instrument (GE Healthcare) was used to measure the binding affinity of muteins to pyoverdine I succinyl, -succinamide, -α-ketoglutaryl with complexed iron ion or to pyoverdine II succinyl, -succinamide, -α-ketoglutaryl with complexed iron ion or to pyoverdine III succinyl, -succinamide, -α-ketoglutaryl with complexed iron ion. Muteins selected for binding to pyoverdines and negative control (SEQ ID NO: 64) were biotinylated for 2 h at room temperature applying an appropriate excess of EZ-Link NHS-PEG4-Biotin (Thermo, Cat #21329) followed by separation of non-reacted Biotin using a Zebra Spin Desalting Plate (Thermo, Cat #21329) according to the manufactures instructions.
(§5) In the SPR affinity assay, biotinylated muteins and negative control were captured on a sensor chip CAP using the Biotin CAPture Kit (GE Healthcare): Sensor Chip CAP is pre-immobilized with an ssDNA oligo. Undiluted Biotin CAPture Reagent (streptavidin conjugated with the complementary ss-DNA oligo) was applied at a flow rate of 2 μl/min for 300 s. Subsequently, 1 μg/ml to 100 μg/mL of biotinylated muteins or negative control were applied for 300 s at a flow rate of 5 μl/min. The reference channel was loaded with Biotin CAPture Reagent only.
(§6) Applying a flow rate of 30 μl/min, a single cycle or multi cycle kinetics approach was used with a sample contact time of 120-180 s and a dissociation time of 900-2400 s. […] After ligand immobilization, for analysis using single cycle kinetics all 4-5 concentrations of Pvd were applied consecutively in ascending order before the dissociation was monitored. For analysis using multi cycle kinetics 4 dilutions of Pvd were applied, each followed a dissociation phase. All measurements were performed at 25° C. […] Data were evaluated with Biacore T200 Evaluation software (V 1.0). Double referencing was used. A 1:1 Binding model was used to fit the raw data.
In a surface plasmon resonance (SPR) based assay, a Biacore T200 instrument (GE Healthcare) was used to measure the binding affinity of individual muteins or fusion molecules to pyoverdine siderophores (to pyoverdine I succinyl, -succinamide, -α-ketoglutaryl with complexed iron ion or to pyoverdine II succinyl, -succinamide, -α-ketoglutaryl with complexed iron ion or to pyoverdine III succinyl, -succinamide, -α-ketoglutaryl with complexed iron ion). To this end, muteins selected for binding to pyoverdines (SEQ ID NOs: 16, 36, 53), a fusion molecule (SEQ ID NO: 134) and a negative control (SEQ ID NO: 64) were biotinylated for 2 h at room temperature applying an appropriate excess of EZ-Link NHS-PEG4-Biotin (Thermo, Cat #21329) followed by separation of non-reacted biotin using a Zebra Spin Desalting Plate (Thermo, Cat #21329) according to the manufacturer's instructions.
In the SPR affinity assay, biotinylated muteins and negative control were captured on a sensor chip CAP using the Biotin CAPture Kit (GE Healthcare), wherein the Sensor Chip CAP is pre-immobilized with an ssDNA oligo. Undiluted Biotin CAPture Reagent (streptavidin conjugated with the complementary ss-DNA oligo) was applied at a flow rate of 2 μl/min for 300 s. Subsequently, 20 μg/ml to 100 μg/mL of biotinylated muteins or fusion molecule negative control were applied for 300 s at a flow rate of 5 μl/min. The reference channel was loaded with Biotin CAPture Reagent only. To determine the binding affinity, four dilutions of the respective Pvd were prepared in HBS-EP+ buffer (GE Healthcare) and applied to the chip surface. Applying a flow rate of 30 μl/min, a single cycle kinetics approach was used with a sample contact time of 180 s and a dissociation time of 1800-2400 s. […] After ligand immobilization, the four concentrations of Pvd were applied consecutively in ascending order before the dissociation was monitored. All measurements were performed at 25° C. […] Data were evaluated with Biacore T200 Evaluation software (V 1.0). Double referencing was preformed.

[14] = target: T13, hNGAL (human lipocalin 2, parent wild type SEQ ID NO: 1) mutein SEQ ID NO: 62 (Homo sapiens, UniProt P80188, A60Q/C107S/D65G/D97L/I61W/K145F/K154F/K66R/K93I/L123G/L56H/L90D/N85D/Q69R/R101T/R92A/S147I/S88D/W99R/Y120H/Y126G/Y152A/Y72W); assay: Surface plasmon resonance (Biacore T200), CM5 chip; type: binding; conditions: SPR, high concentrations (≥1 μM)
T13 construct: made in house
Description: (§7) Subsequently, 5 μg/mL of mutein or the negative control solution in 10 mM acetate pH 4.0 was applied at a flow rate of 10 μl/min until a high immobilization level of approximately 2000 RU was achieved. Residual activated groups were quenched with ethanolamine. The reference channels were treated with EDC/NHS following ethanolamine (blank immobilization).
The binding assay was carried out with a contact time of 180 s, dissociation times of 1200-1800 s and applying a flow rate of 30 μl/min. Measurements were performed at 25° C. Regeneration of the immobilized mutein surface was achieved by three consecutive injections of 10 mM Gly-HCl pH 1.5 (120 s) followed by an extra wash with running buffer and a stabilization period. Data were evaluated with Biacore T200 Evaluation software (V 1.0). Double referencing was used. The 1:1 Binding model was used to fit the raw data.
Subsequently, 5 μg/mL of mutein or the negative control solution in 10 mM acetate pH 4.0 was applied at a flow rate of 10 μl/min until a high immobilization level of approximately 2000 RU was achieved. Residual activated groups were quenched with ethanolamine. The reference channels were treated with EDC/NHS following ethanolamine (blank immobilization). […] The binding assay was carried out with a contact time of 180 s, dissociation times of 1500-1800 s and applying a flow rate of 30 μl/min. Measurements were performed at 25° C. Regeneration of the immobilized mutein surface was achieved by three consecutive injections of 10 mM Gly-HCl pH 1.5 (120 s) followed by an extra wash with running buffer and a stabilization period. Data were evaluated with Biacore T200 Evaluation software (V 1.0). Double referencing was used. The 1:1 Binding model was used to fit the raw data.

[15] = target: lipocalin negative control SEQ ID NO: 64 (Homo sapiens, UniProt P80188, C107S/Q48H); assay: Surface plasmon resonance (Biacore T200); type: binding
Description: as §4, §5, §6, §7
In the SPR affinity assay, biotinylated muteins and negative control were captured on a sensor chip CAP using the Biotin CAPture Kit (GE Healthcare), wherein the Sensor Chip CAP is pre-immobilized with an ssDNA oligo. Undiluted Biotin CAPture Reagent (streptavidin conjugated with the complementary ss-DNA oligo) was applied at a flow rate of 2 μl/min for 300 s. Subsequently, 20 μg/ml to 100 μg/mL of biotinylated muteins or fusion molecule negative control were applied for 300 s at a flow rate of 5 μl/min. The reference channel was loaded with Biotin CAPture Reagent only. To determine the binding affinity, four dilutions of the respective Pvd were prepared in HBS-EP+ buffer (GE Healthcare) and applied to the chip surface. Applying a flow rate of 30 μl/min, a single cycle kinetics approach was used with a sample contact time of 180 s and a dissociation time of 1800-2400 s. […] After ligand immobilization, the four concentrations of Pvd were applied consecutively in ascending order before the dissociation was monitored. All measurements were performed at 25° C. […] Data were evaluated with Biacore T200 Evaluation software (V 1.0). Double referencing was preformed. A 1:1 binding model was used to fit the raw data.

[16] = target: hNGAL (human lipocalin 2), wild type, SEQ ID NO: 1 (Homo sapiens, UniProt P80188); conditions: cited from earlier work
hNGAL (human lipocalin 2), wild type, SEQ ID NO: 1, sequence (P80188 21-198): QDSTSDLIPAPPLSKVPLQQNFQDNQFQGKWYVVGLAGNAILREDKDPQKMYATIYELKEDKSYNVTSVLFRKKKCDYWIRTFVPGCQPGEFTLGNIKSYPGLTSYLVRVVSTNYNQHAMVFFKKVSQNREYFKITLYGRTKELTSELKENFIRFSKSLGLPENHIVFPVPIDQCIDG

T1 sequence (P80188 other isoform, or with tags, fused parts or gaps with the stated changes): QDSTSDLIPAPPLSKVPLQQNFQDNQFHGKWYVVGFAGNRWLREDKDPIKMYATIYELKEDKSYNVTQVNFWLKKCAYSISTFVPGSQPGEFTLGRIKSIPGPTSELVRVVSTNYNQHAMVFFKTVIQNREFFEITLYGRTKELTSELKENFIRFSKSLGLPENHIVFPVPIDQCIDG
T2 sequence (P80188 21-198 with the stated changes): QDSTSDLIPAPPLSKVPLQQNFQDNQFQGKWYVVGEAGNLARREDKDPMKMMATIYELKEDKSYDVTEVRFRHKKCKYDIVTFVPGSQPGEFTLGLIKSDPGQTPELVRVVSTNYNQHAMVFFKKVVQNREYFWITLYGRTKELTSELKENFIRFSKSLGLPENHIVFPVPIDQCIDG
T10 sequence (P80188 other isoform, or with tags, fused parts or gaps with the stated changes): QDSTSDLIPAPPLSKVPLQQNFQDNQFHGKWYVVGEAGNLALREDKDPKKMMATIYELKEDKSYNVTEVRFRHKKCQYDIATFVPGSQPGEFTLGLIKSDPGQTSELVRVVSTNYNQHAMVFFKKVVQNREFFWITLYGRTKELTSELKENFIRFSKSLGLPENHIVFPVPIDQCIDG
T11 sequence (P80188 other isoform, or with tags, fused parts or gaps with the stated changes): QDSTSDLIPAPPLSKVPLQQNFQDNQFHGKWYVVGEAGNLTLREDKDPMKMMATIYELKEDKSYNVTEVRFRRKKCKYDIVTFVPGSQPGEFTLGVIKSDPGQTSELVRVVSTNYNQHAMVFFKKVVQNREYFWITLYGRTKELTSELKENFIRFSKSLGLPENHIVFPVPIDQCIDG
T9 sequence (P80188 other isoform, or with tags, fused parts or gaps with the stated changes): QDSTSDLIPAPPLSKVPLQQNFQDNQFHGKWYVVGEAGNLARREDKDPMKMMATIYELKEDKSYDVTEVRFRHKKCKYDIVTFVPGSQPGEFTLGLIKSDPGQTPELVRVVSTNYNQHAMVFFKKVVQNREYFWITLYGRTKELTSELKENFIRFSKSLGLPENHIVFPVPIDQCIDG
T12 sequence (P80188 other isoform, or with tags, fused parts or gaps with the stated changes): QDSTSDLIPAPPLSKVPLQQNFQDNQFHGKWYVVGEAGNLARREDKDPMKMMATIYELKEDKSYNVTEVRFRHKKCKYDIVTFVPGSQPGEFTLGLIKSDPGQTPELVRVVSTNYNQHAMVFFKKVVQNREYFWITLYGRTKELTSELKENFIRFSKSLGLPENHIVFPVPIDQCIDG
T6 sequence (P80188 other isoform, or with tags, fused parts or gaps with the stated changes): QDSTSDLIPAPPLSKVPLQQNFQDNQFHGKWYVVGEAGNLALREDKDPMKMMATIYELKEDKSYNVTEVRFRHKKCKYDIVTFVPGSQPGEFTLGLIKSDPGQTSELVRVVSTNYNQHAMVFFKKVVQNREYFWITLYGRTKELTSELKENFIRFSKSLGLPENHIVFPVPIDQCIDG
T3 sequence (P80188 other isoform, or with tags, fused parts or gaps with the stated changes): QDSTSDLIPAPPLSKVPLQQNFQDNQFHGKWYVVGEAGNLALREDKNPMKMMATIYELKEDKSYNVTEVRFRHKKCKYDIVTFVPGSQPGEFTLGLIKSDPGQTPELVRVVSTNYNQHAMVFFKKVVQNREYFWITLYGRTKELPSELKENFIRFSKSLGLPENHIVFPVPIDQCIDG
T7 sequence (P80188 other isoform, or with tags, fused parts or gaps with the stated changes): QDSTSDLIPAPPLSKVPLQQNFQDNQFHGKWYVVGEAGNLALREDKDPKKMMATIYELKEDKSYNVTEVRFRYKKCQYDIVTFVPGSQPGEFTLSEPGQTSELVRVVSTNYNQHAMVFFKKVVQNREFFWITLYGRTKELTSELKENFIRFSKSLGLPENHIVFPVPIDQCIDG
T8 sequence (P80188 other isoform, or with tags, fused parts or gaps with the stated changes): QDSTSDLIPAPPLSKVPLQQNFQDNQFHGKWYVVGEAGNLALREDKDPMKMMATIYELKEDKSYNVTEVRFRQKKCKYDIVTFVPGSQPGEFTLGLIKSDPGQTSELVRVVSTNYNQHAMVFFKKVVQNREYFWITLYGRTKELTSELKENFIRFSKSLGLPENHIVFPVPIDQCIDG
lipocalin negative control SEQ ID NO: 64, sequence (P80188 21-198 Q48H/C107S): as the sequence (P80188 21-198) above, with Q28H, C87S counted along it
T13 sequence (P80188 21-198 with the stated changes): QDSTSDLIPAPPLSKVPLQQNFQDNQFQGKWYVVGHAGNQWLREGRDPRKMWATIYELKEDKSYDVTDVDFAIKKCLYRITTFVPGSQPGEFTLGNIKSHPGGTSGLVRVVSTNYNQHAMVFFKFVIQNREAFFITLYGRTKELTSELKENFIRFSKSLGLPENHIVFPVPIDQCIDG

Compound	IC50 [1] [nM]	IC50 [2] [nM]	IC50 [3] [nM]	Kd ([4]; Biacore, 25° C., Table 13) [nM]	IC50 [5] [nM]	IC50 [6] [nM]	IC50 [7] [nM]	IC50 [8] [nM]	IC50 [9] [nM]	IC50 [10] [nM]	IC50 [11] [nM]	IC50 [12] [nM]	further results
NC(=O)CC[C@H](NC(=O)[C@H](CCCN(O)C=O)NC(=O)[C@@H]1CCN=C([C@@H](CO)NC(=O)[C@@H]2CCNc3c(NC(=O)C(=O)CCC(=O)O)cc4cc(O)c(O)cc4[n+]32)N1)C(=O)N[C@H](CCC(N)=O)C(=O)N[C@H](CCCN(O)C=O)C(=O)NCC(=O)O [Pvd III aKG (−Fe), Pvd type III α-ketoglutaryl]	23	0.33	0.64	18.7	0.7	1.7	1.2	1.9	0.82	69	1.1	0.58	
NC(=O)CC[C@H](NC(=O)[C@H](CCCN([O-])C=O)NC(=O)[C@@H]1CCN=C([C@@H](CO)NC(=O)[C@@H]2CCNc3c(NC(=O)C(=O)CCC(=O)O)cc4cc([O-])c([O-])cc4[n+]32)N1)C(=O)N[C@H](CCC(N)=O)C(=O)N[C@H](CCCN([O-])C=O)C(=O)NCC(=O)O.[Fe+3] [Pvd III aKG (+Fe), Pvd type III α-ketoglutaryl]	23	0.54	0.95	1.04	0.58	1.5	1.02	1.4	0.95	78	0.93	0.82	Kd [13]: 3.6 nM; koff [13]: 0.00014 s⁻¹; kon [13]: 38800 M⁻¹ s⁻¹
CC(=O)N(O)CCCCCNC(=O)CCC(=O)N(O)CCCCCNC(=O)CCC(=O)N(O)CCCCCN [Desferoxamin, desferoxamine]													binding [14]: absence of binding; KD ([4]; Biacore, 25° C., Table 13): no bdg; binding ([4]; high concentrations (≥1 μM)): absence of binding
CN1[C@@H]([C@H]2CSC(c3ccccc3O)=N2)SC[C@H]1C(=O)O [pyochelin]													binding ([4]; His-tagged fusion captured via Ni-NTA): clearly detectable; binding ([15]; Biacore, Example 18): did not show binding; binding [16]: does not bind
NC(=O)CC[C@H](NC(=O)[C@H](CCCN([O-])C=O)NC(=O)[C@@H]1CCN=C([C@@H](CO)NC(=O)[C@@H]2CCNc3c(NC(=O)CCC(=O)O)cc4cc([O-])c([O-])cc4[n+]32)N1)C(=O)N[C@H](CCC(N)=O)C(=O)N[C@H](CCCN([O-])C=O)C(=O)NCC(=O)O.[Fe+3] [Pvd III s (+Fe), Pvd type III succinyl]													binding ([15]; SPR, analyte at 1200 nM): absence of binding
NC(=O)CCC(=O)Nc1cc2cc(O)c(O)cc2[n+]2c1NCC[C@H]2C(=O)N[C@H](CO)C1=NCC[C@@H](C(=O)N[C@@H](CCCN(O)C=O)C(=O)N[C@@H](CCC(N)=O)C(=O)N[C@H](CCC(N)=O)C(=O)N[C@H](CCCN(O)C=O)C(=O)NCC(=O)O)N1 [Pvd III sa (−Fe), Pvd type III succinamide]	94	0.63	0.24	1.65	0.27	0.46	0.3	0.46	0.37	7.2	0.21	0.28	
C[C@@H](O)[C@@H](NC(=O)CNC(=O)[C@H](CCCN)NC(=O)[C@@H](CCCN([O-])C=O)NC(=O)[C@@H](CO)NC(=O)[C@@H]1CCNc2c(NC(=O)CCC(=O)O)cc3cc([O-])c([O-])cc3[n+]21)C(=O)N[C@@H](CO)C(=O)N[C@H]1CCCN([O-])C1=O.[Fe+3] [Pvd II s (+Fe), Pvd type II succinyl] (Suc-[X1][dS][dOrn(N5-OH,N5-CHO)][Orn]G[d(aThr)]S-X2)													binding ([15]; SPR, analyte at 1200 nM): absence of binding
O=C(N[C@H]1COC(=O)[C@@H](NC(=O)c2cccc(O)c2O)COC(=O)[C@@H](NC(=O)c2cccc(O)c2O)COC1=O)c1cccc(O)c1O.[Fe+3] [enterobactin]													binding [16]: high affinity
NC(=O)CCC(=O)Nc1cc2cc([O-])c([O-])cc2[n+]2c1NCC[C@H]2C(=O)N[C@H](CO)C1=NCC[C@@H](C(=O)N[C@@H](CCCN([O-])C=O)C(=O)N[C@@H](CCC(N)=O)C(=O)N[C@H](CCC(N)=O)C(=O)N[C@H](CCCN([O-])C=O)C(=O)NCC(=O)O)N1.[Fe+3] [Pvd III sa (+Fe), Pvd type III succinamide]	147	0.25	0.22	0.27	0.31	0.43	0.3	0.25	0.35	15	0.26	0.3	Kd [13]: 0.58 nM; koff [13]: 3.9e-05 s⁻¹; kon [13]: 67300 M⁻¹ s⁻¹

Reference: patent US10947284B2, “Fusion molecules” (Pieris Pharmaceuticals GMBH, priority 2015, dated 2021)
